For 21 compounds, inhibition results are on record in patent US9416115B2, “Fused heterocyclic compounds as ion channel modulators” (Gilead Sciences, Inc., priority 2013, dated 2016).

The structures appear in SMILES notation.

For experiment [1], the target named is T1, hNaV1.2 (SCN2A) (Homo sapiens, UniProt Q99250).
T1 construct: expressed in transfected cells
Briefly: Use-dependent inhibition of the CNS Nav1.2 sodium channel. It is filed as cell-based. The note with it: use-dependent block, 25 Hz, pulse 20, read-out: Nav1.2 UDB 25 Hz 10 uM. On the procedure: HEK-293 cells stably expressing wild-type (WT) hNaV1.2 (SCN2A NCBI # NM_021007.2, SCN1B NCBI # NM_001037.4, SCN2B NCBI # NM_004588.2) were used to record INa. Cells are maintained with standard tissue culture procedures and stable channel expression is maintained with 800 ug/mL G418 and 3 ug/mL Puromycin in the culture medium. Unless otherwise noted, all reagents are purchased from Sigma-Aldrich (St Louis, Mo., U.S.A.).
Assays measuring Use-Dependent Block (UDB) of Nav1.2 are performed on an automated electrophysiology platform, QPatch 16X or QPatch HT (Sophion Bioscience, Copenhagen, Denmark), using the whole cell patch clamp technique to measure currents through the cell membrane. Series resistance compensation is set to 100% and series resistance and whole-cell compensation are performed automatically. Currents stored in the Sophion Bioscience Oracle database (Sophion Bioscience, Copenhagen, Denmark). Analysis is performed using QPatch Assay software and data are compiled in Excel 2010 (Microsoft, Seattle, Wash., U.S.A.).
The internal (pipette) solution consists of (in mM) 105 CsF, 10 NaF, 20 CsCl, 2 EGTA, 10 HEPES, 10 Dextrose with a pH of 7.35 and osmolarity of 300 mOsmol/kg. The external (bath) solution contains in (mM): 145 NaCl, 4 KCl, 1.8 CaCl2, 1 MgCl2, 10 dextrose, 10 HEPES, with a pH of 7.35 and osmolarity of 310 mOsmol/kg. Experiments are carried out at 23-25° C.
Compound stocks are routinely made by the Gilead Sample Bank in vials to 10 mM in dimethyl sulfoxide (DMSO). In some cases, when compounds are not soluble in DMSO, they are made in 100% ethanol. Stocks are sonicated as necessary. […]
Cells are allowed to stabilize for 10 min after establishment of the whole-cell configuration before current is measured. The test compound is applied 2 times at 60 second intervals. After the second compound addition, a 200 second wait period was imposed to allow for equilibration. Leak currents are subtracted by using an online P/4 procedure and all currents are low-pass Bessel filtered at 5 kHz and digitized at […].
Results are presented as mean percentage inhibition.
Use-dependent block of Nav1.2 peak current is measured during pulse number 20 of a voltage pulse train (0 mV, 20 ms, 20 pulses, 25 Hz) from a holding potential of −120 mV.
Currents are normalized to the peak current recorded in response to the first pulse in each frequency train. The voltage protocol for UDB was performed in the absence and presence of compound and percentage inhibition was calculated with respect to the compound free condition.

For experiment [2], the target named is wild-type human cardiac sodium channel, hNav1.5 (Homo sapiens, UniProt Q14524). Briefly: Late INa screening assay (QPatch whole cell patch clamp, Tefluthrin-induced late current). It counts as cell-based. The conditions noted are these: HEK293 hNav1.5, percent block of late INa. The method in brief: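 HEK293 cells stably expressing hNav1.5 without beta subunits were whole-cell patch clamped at 23-25 °C, stepping from −120 to −20 mV for 250 ms at 0.1 Hz. Late current (240–265 ms) was induced with 10 μM Tefluthrin, and compounds were added typically at 0.3 or 1 μM. Percent block was taken against 0 Na baseline with rundown correction.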
In general terms: In patch-clamp work, channel activity is measured electrically.

T1 sequence (Q99250 whole entry): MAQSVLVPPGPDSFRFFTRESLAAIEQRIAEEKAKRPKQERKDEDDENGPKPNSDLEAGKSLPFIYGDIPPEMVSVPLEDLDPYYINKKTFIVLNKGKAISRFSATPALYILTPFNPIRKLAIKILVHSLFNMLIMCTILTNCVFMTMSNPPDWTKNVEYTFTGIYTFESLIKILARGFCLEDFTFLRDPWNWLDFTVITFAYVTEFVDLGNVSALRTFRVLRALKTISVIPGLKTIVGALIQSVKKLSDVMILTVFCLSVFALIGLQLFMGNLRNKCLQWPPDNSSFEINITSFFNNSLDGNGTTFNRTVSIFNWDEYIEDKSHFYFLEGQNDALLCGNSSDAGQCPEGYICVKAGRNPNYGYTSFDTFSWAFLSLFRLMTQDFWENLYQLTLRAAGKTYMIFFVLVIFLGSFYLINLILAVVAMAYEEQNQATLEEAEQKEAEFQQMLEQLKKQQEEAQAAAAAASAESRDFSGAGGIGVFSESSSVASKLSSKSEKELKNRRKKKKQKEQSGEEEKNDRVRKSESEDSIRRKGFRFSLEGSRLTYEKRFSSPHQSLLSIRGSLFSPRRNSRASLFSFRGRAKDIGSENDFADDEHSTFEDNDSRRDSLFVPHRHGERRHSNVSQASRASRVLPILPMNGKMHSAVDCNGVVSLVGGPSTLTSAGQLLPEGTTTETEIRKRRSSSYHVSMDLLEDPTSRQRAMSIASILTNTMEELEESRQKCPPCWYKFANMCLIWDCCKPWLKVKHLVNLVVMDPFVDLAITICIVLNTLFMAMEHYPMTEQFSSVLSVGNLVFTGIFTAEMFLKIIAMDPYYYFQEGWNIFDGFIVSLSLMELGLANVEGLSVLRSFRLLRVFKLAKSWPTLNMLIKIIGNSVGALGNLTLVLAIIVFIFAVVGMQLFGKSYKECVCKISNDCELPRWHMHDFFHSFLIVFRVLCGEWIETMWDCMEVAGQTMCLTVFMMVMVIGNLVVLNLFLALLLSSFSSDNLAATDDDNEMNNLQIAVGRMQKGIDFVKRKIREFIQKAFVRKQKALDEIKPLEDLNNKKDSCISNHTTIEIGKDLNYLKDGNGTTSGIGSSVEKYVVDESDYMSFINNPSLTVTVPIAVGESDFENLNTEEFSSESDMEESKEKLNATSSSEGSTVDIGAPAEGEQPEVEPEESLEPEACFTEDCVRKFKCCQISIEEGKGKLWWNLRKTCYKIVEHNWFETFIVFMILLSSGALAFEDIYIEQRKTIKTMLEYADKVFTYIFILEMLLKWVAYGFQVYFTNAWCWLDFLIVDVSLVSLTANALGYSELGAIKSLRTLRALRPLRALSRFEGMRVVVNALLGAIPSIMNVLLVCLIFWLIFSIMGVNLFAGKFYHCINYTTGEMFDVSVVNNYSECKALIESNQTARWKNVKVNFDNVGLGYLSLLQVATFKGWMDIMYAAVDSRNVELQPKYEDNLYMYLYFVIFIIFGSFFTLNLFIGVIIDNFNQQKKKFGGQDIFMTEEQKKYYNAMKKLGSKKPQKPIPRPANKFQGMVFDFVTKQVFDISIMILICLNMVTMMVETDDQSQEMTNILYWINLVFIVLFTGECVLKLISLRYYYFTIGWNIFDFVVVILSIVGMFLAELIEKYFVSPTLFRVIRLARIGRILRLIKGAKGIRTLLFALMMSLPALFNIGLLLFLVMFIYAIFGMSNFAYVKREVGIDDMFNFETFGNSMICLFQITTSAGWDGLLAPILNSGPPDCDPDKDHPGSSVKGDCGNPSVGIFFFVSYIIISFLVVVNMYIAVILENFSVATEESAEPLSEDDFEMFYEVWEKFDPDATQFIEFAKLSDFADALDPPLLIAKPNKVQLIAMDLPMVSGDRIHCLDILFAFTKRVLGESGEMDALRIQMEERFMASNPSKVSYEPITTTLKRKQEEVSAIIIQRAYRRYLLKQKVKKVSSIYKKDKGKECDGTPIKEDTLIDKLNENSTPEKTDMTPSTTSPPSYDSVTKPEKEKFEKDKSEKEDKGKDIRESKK
T1 sequence (Q07699 19-218 partner): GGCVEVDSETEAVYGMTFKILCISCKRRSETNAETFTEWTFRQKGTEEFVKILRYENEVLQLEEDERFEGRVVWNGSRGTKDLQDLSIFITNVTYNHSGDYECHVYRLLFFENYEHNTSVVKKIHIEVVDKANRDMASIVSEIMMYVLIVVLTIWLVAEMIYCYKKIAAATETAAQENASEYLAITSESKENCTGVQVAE
T1 sequence (O60939 30-215 partner): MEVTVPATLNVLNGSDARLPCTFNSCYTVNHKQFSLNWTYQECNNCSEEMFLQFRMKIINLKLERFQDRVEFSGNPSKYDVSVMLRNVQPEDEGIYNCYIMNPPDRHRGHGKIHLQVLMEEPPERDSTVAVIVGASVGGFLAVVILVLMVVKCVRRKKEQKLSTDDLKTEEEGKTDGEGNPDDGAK
wild-type human cardiac sodium channel, hNav1.5, sequence (Q14524 whole entry): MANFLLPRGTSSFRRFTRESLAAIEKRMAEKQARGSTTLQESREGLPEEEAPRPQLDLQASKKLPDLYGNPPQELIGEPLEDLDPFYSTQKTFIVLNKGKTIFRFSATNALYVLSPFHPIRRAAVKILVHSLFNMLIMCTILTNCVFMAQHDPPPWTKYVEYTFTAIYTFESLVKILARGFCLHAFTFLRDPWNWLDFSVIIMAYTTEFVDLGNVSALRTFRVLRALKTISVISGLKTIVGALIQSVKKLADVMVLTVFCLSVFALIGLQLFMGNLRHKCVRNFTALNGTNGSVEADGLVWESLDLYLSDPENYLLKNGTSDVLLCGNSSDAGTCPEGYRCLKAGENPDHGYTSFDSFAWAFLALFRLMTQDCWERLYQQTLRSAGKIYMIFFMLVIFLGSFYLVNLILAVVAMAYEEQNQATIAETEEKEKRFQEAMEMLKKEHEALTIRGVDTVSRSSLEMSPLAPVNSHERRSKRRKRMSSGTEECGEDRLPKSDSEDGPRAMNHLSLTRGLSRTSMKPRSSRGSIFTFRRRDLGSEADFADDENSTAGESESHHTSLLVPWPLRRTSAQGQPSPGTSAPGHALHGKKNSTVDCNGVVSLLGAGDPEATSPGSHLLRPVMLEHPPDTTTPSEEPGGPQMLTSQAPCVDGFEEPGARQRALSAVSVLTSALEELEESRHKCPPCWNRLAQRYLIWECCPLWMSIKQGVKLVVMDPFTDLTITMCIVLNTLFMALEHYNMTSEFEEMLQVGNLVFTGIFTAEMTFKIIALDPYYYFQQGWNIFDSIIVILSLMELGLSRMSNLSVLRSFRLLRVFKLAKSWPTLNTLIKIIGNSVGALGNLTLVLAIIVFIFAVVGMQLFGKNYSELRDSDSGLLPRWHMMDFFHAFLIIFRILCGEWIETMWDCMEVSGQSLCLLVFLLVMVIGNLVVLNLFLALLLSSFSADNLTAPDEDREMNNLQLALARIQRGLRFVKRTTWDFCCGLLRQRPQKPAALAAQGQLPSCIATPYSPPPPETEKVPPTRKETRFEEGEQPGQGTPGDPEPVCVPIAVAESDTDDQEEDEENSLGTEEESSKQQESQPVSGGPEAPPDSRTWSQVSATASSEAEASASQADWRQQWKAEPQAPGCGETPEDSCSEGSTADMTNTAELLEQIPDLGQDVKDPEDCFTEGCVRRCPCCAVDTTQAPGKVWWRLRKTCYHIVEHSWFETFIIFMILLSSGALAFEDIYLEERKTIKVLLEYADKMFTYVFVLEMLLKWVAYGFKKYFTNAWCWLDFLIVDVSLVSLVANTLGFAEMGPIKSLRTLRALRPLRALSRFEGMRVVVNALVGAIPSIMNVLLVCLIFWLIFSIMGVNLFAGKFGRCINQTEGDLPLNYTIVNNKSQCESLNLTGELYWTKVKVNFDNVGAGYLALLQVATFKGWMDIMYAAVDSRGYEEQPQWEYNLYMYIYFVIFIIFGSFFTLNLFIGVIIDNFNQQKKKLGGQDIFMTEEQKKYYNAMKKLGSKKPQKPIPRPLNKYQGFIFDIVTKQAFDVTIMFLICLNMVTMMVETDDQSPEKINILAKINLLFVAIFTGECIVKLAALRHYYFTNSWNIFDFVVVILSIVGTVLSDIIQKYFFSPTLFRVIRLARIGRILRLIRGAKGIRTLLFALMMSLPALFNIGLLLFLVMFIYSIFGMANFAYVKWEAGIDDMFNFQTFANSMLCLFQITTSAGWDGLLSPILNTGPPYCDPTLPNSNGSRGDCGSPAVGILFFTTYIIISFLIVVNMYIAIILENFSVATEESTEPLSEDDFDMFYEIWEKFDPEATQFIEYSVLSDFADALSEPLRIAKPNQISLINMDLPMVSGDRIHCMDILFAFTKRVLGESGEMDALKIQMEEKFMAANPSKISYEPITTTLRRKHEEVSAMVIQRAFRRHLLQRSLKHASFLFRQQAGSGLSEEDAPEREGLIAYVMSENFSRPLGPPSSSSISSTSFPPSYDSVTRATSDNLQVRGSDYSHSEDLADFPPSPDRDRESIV

As to `FC(F)(F)Oc1ccc(-c2ccc3onc(OCCn4cncn4)c3c2)cc1` [Example 58, 3-(2-(1H-1,2,4-triazol-1-yl)ethoxy)-5-(4-(trifluoromethoxy)phenyl)benzo[d]isoxazole], the inhibition at 10 µM in experiment [1] worked out at 14.5%. Moreover, in experiment [2], the inhibition at 0.3 µM is 36.7% and the inhibition at 1 µM was 55%.

As to `O=C1CCCN1CCOc1noc2ccc(-c3ccc(OC(F)(F)F)cc3)cc12` [Example 59, 1-(2-((5-(4-(trifluoromethoxy)phenyl)benzo[d]isoxazol-3-yl)oxy)ethyl)pyrrolidin-2-one], in experiment [1], the inhibition at 10 µM came out at 37.4%. In experiment [2], this compound showed an inhibition at 0.3 µM of 43.7% and an inhibition at 1 µM of 60.4%.

Consider `COCCOc1noc2ccc(-c3ccc(OC(F)(F)F)cc3)cc12` [Example 60, 3-(2-methoxyethoxy)-5-(4-(trifluoromethoxy)phenyl)benzo[d]isoxazole], for which, in experiment [1], the inhibition at 10 µM is less than 5%. Besides, in experiment [2], the inhibition at 0.3 µM was 16.8% and the inhibition at 1 µM turned out to be 57.2%.

For the compound `COc1ccnc(COc2noc3ccc(-c4ccc(OC(F)(F)F)cc4)cc23)n1` [Example 67, 3-((4-methoxypyrimidin-2-yl)methoxy)-5-(4-(trifluoromethoxy)phenyl)benzo[d]isoxazole], in experiment [1], the inhibition at 10 µM is less than 5%. Further, in experiment [2], the inhibition at 0.3 µM turned out to be 54.4% and the inhibition at 1 µM was determined as 77.4%.

Regarding `CC(COc1noc2ccc(-c3ccc(OC(F)(F)F)cc3)cc12)n1cccn1` (stereo not shown) [Example 68, 3-(2-(1H-pyrazol-1-yl)propoxy)-5-(4-(trifluoromethoxy)phenyl)benzo[d]isoxazole], the inhibition at 10 µM in experiment [1] was less than 5%. Further, in experiment [2], the inhibition at 0.3 µM was 35.8% and the inhibition at 1 µM came out at 62.2%.

Consider `CN1CCC[C@H]1COc1noc2ccc(-c3ccc(OC(F)(F)F)cc3)cc12` [Example 71, (S)-3-((1-methylpyrrolidin-2-yl)methoxy)-5-(4-(trifluoromethoxy)phenyl)benzo[d]isoxazole], for which, in experiment [1], the inhibition at 10 µM stood at 89.6%. In experiment [2], this compound came in with an inhibition at 0.3 µM of 41.7% and an inhibition at 1 µM of 81.5%.

In the case of `O=C1NCC[C@H]1Oc1noc2ccc(-c3ccc(OC(F)(F)F)cc3)cc12` [Example 72, (R)-3-((5-(4-(trifluoromethoxy)phenyl)benzo[d]isoxazol-3-yl)oxy)pyrrolidin-2-one], the inhibition at 10 µM in experiment [1] worked out at 75.4%. In experiment [2], this compound gave an inhibition at 0.3 µM of 14% and an inhibition at 1 µM of 57.4%.

Consider `Cc1cnc(COc2noc3ccc(-c4ccc(OC(F)(F)F)cc4)cc23)cn1` [Example 73, 3-((5-methylpyrazin-2-yl)methoxy)-5-(4-(trifluoromethoxy)phenyl)benzo[d]isoxazole], for which the inhibition at 10 µM in experiment [1] was less than 5%. For the same compound, in experiment [2], the inhibition at 0.3 µM came out at 20.4% and the inhibition at 1 µM worked out at 66.2%.

Turning to `FC(F)(F)Oc1ccc(-c2ccc3onc(OCc4cccnn4)c3c2)cc1` [Example 74, 3-(pyridazin-3-ylmethoxy)-5-(4-(trifluoromethoxy)phenyl)benzo[d]isoxazole], in experiment [1], the inhibition at 10 µM is less than 5%. Moreover, in experiment [2], the inhibition at 0.3 µM was found to be 15.7% and the inhibition at 1 µM turned out to be 60.9%.

Regarding `O=C1OCCN1CCOc1noc2ccc(-c3ccc(OC(F)(F)F)cc3)cc12` [Example 75, 3-(2-((5-(4-(trifluoromethoxy)phenyl)benzo[d]isoxazol-3-yl)oxy)ethyl)oxazolidin-2-one], the inhibition at 10 µM in experiment [1] turned out to be 27.1%. For the same compound, in experiment [2], the inhibition at 0.3 µM is 29.3% and the inhibition at 1 µM turned out to be 59.5%.

Consider `Cc1cc(-c2ccc(OC(F)(F)F)cc2)cc2c(OCc3cn(C)nn3)noc12` [Example 87, 7-methyl-3-((1-methyl-1H-1,2,3-triazol-4-yl)methoxy)-5-(4-(trifluoromethoxy)phenyl)benzo[d]isoxazole], for which the inhibition at 10 µM in experiment [1] came to 87%. In experiment [2], this compound came in with an inhibition at 0.3 µM of 18.4% and an inhibition at 1 µM of 62.7%.

As for `Fc1cccnc1COc1noc2ccc(-c3ccc(OC(F)(F)F)cc3)cc12` [Example 94, 3-((3-fluoropyridin-2-yl)methoxy)-5-(4-(trifluoromethoxy)phenyl)benzo[d]isoxazole], in experiment [1], the inhibition at 10 µM is less than 5%. Besides, in experiment [2], the inhibition at 0.3 µM was determined as 35.1% and the inhibition at 1 µM turned out to be 58.7%.

On to `FC(F)(F)Oc1ccc(-c2ccc3onc(OCc4nnc(C5CC5)o4)c3c2)cc1` [Example 96, 3-((5-cyclopropyl-1,3,4-oxadiazol-2-yl)methoxy)-5-(4-(trifluoromethoxy)phenyl)benzo[d]isoxazole], for which the inhibition at 10 µM in experiment [1] was 5.7%. In experiment [2], this compound had an inhibition at 0.3 µM of 21.1% and an inhibition at 1 µM of 59.2%.

For the compound `Cc1nnc(COc2noc3ccc(-c4ccc(OC(F)(F)F)cc4)cc23)o1` [Example 99, 3-((5-methyl-1,3,4-oxadiazol-2-yl)methoxy)-5-(4-(trifluoromethoxy)phenyl)benzo[d]isoxazole], in experiment [1], the inhibition at 10 µM turned out to be 50.5%. Also, in experiment [2], the inhibition at 0.3 µM was 42.3% and the inhibition at 1 µM came out at 72.3%.

Consider `CC(C)c1nnc(COc2noc3ccc(-c4ccc(OC(F)(F)F)cc4)cc23)o1` [Example 100, 3-((5-isopropyl-1,3,4-oxadiazol-2-yl)methoxy)-5-(4-(trifluoromethoxy)phenyl)benzo[d]isoxazole], for which the inhibition at 10 µM in experiment [1] is 11%. In experiment [2], this compound came in with an inhibition at 0.3 µM of 31.7% and an inhibition at 1 µM of 61.9%.

As to `Cc1nnc(COc2noc3ccc(-c4ccc(OC(F)(F)F)cc4)cc23)s1` [Example 101, 3-((5-methyl-1,3,4-thiadiazol-2-yl)methoxy)-5-(4-(trifluoromethoxy)phenyl)benzo[d]isoxazole], the inhibition at 10 µM in experiment [1] is 30.5%. The inhibition at 1 µM in experiment [2] stood at 54.6%.

With `Cc1cc(COc2noc3ccc(-c4ccc(OC(F)(F)F)cc4)cc23)on1` [Example 102, 3-((3-methylisoxazol-5-yl)methoxy)-5-(4-(trifluoromethoxy)phenyl)benzo[d]isoxazole], the inhibition at 10 µM in experiment [1] was 20.6%. In addition, in experiment [2], the inhibition at 1 µM was 43.1%.

For the compound `N#CCOc1noc2ccc(-c3ccc(OC(F)(F)F)cc3)cc12` [Example 103, 2-((5-(4-(trifluoromethoxy)phenyl)benzo[d]isoxazol-3-yl)oxy)acetonitrile], the inhibition at 10 µM in experiment [1] was less than 5%. For the same compound, the inhibition at 1 µM in experiment [2] was 38.9%.

Turning to `Fc1cc(-c2ccc(OC(F)(F)F)cc2)cc2c(OCc3nnc(C4CC4)o3)noc12` [Example 104, 3-((5-cyclopropyl-1,3,4-oxadiazol-2-yl)methoxy)-7-fluoro-5-(4-(trifluoromethoxy)phenyl)benzo[d]isoxazole], the inhibition at 10 µM in experiment [1] stood at 57%. This compound also had an inhibition at 1 µM in experiment [2] of 38.6%.

Regarding `Cc1cc(-c2ccc(OC(F)(F)F)cc2)cc2c(OCc3nnc(C4CC4)o3)noc12` [Example 105, 3-((5-cyclopropyl-1,3,4-oxadiazol-2-yl)methoxy)-7-methyl-5-(4-(trifluoromethoxy)phenyl)benzo[d]isoxazole], the inhibition at 10 µM in experiment [1] was 70.9%. Also, in experiment [2], the inhibition at 1 µM is 53.7%.

As for `CC(=O)N1CCC[C@H]1COc1noc2ccc(-c3ccc(OC(F)(F)F)cc3)cc12` [Example 109, (S)-1-(2-(((5-(4-(trifluoromethoxy)phenyl)benzo[d]isoxazol-3-yl)oxy)methyl)pyrrolidin-1-yl)ethan-1-one], the inhibition at 10 µM in experiment [1] turned out to be 39.3%. Also, in experiment [2], the inhibition at 0.3 µM is 25.3% and the inhibition at 1 µM worked out at 65.7%.
